Where “and” joins values, the source holds several entries; their conditions need not be identical. Equal values may be shown once.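 Each compound was tested at five concentrations against cells in 96-well plates for 48 hours. The concentration for 50% growth inhibition is given as GI50. TGI marks complete inhibition of growth.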

Test systems include COLO 205 colon; NCI-H460 lung; HS 578T breast; HOP-92 NSCLC; NCI-H23 lung; OVCAR-3 ovarian; SN12C renal; NCI-H226 lung; HCC-2998 colon; UACC-62 melanoma.
What all share (test): NCI tumour cell line growth inhibition, 48 h

Take `COc1ccc(/C=C\c2cc(OC)c(OC)c(OC)c2)cc1NC(=O)[C@@H](N)CO`: the GI50 in the test on COLO 205 colon was under 0.01 µM; in the test on NCI-H460 lung, 0.0321 µM; in the test on HS 578T breast it was 0.0309 µM; in the test on HOP-92 NSCLC it was 0.0103 µM; in the test on NCI-H23 lung, 0.033 µM; in the test on OVCAR-3 ovarian, under 0.0122 µM. The GI50 is 0.0468 µM with SN12C renal, 0.0287 µM in the test on NCI-H226 lung and 0.0199 µM in the test on HCC-2998 colon. Further, the TGI in the test with COLO 205 colon is 0.0153 µM; in the test on NCI-H460 lung, over 100 µM; with HS 578T breast, over 100 µM; in the test with HOP-92 NSCLC, 64.5 µM; in the test with NCI-H23 lung it was over 100 µM; in the test with OVCAR-3 ovarian it was 0.0415 µM. The TGI in the test on SN12C renal, in the test on NCI-H226 lung, in the test with HCC-2998 colon and in the test with UACC-62 melanoma was over 100 µM throughout.
Consider `COc1ccc(/C=C(\C#N)n2nnc3cc(Cl)ccc32)cc1`, for which the GI50 is 0.513 µM with COLO 205 colon; 2.83 µM in the test on NCI-H460 lung; 2.55 µM in the test on HS 578T breast; 0.552 µM in the test with HOP-92 NSCLC; 1.67 µM with NCI-H23 lung; 0.253 µM in the test with OVCAR-3 ovarian. The GI50 in the test with SN12C renal is 0.662 µM; with NCI-H226 lung, 1.27 µM; with HCC-2998 colon, 1.87 µM; with UACC-62 melanoma, 0.382 µM. Further, the TGI in the test with COLO 205 colon is 7.01 µM; in the test with NCI-H460 lung it was over 56.6 µM; in the test with HS 578T breast, 9.37 µM; in the test on HOP-92 NSCLC, 4.27 µM; in the test on NCI-H23 lung it was over 33.6 µM; with OVCAR-3 ovarian it was 0.695 µM. Further, the TGI is over 100 µM in the test with SN12C renal, over 23.3 µM in the test with NCI-H226 lung, 8.14 µM in the test on HCC-2998 colon and 9.66 µM in the test with UACC-62 melanoma.
As for `C=C1C(=O)OC2C1C(OC(=O)/C(C)=C/C)CC(O)(CCl)C1C(OC(C)=O)C=C(C)C21O` (centres undefined), the TGI was 24.3 µM with COLO 205 colon; 46.1 µM with NCI-H460 lung; over 100 µM in the test on HS 578T breast; 27.9 µM in the test on HOP-92 NSCLC; 34.1 µM in the test on NCI-H23 lung; 23.4 µM with OVCAR-3 ovarian. Besides, the TGI in the test on SN12C renal is 40.4 µM; in the test on NCI-H226 lung, over 61.3 µM; in the test with HCC-2998 colon, 31.9 µM; with UACC-62 melanoma, 29.3 µM.
Consider `CCN(Cc1ccc(F)cc1F)c1ccc(CO)c(Cl)c1`, for which the GI50 in the test with COLO 205 colon is 3.31 µM; in the test on NCI-H460 lung, 0.259 µM; in the test on HS 578T breast, 18.9 µM; in the test with HOP-92 NSCLC it was 1.18 µM; in the test on NCI-H23 lung, 9.05 µM; in the test with OVCAR-3 ovarian, 0.389 µM. The GI50 in the test on SN12C renal is 11.2 µM; in the test on NCI-H226 lung, 0.0945 µM; in the test on HCC-2998 colon, 4.26 µM; in the test with UACC-62 melanoma, 0.0981 µM. In addition, the TGI in the test on COLO 205 colon is 9.24 µM; in the test with NCI-H460 lung, 6.68 µM; with HS 578T breast, over 72.8 µM; in the test on HOP-92 NSCLC, 16.5 µM; with NCI-H23 lung it was 24.3 µM; with OVCAR-3 ovarian, 2.07 µM. For the same molecule, the TGI with SN12C renal was found to be 23.8 µM; in the test with NCI-H226 lung, 0.219 µM; in the test with HCC-2998 colon, 20.4 µM; with UACC-62 melanoma, 0.581 µM.
For `COc1cccc(-c2nc(-c3ccc(NS(=O)(=O)c4ccccc4)cc3)[nH]c2-c2ccnc(Br)c2)c1`, the GI50 in the test with COLO 205 colon is 2.66 µM; in the test on NCI-H460 lung, 2.85 µM; with HS 578T breast, 1.71 µM; in the test with HOP-92 NSCLC it was 2.46 µM; in the test on NCI-H23 lung, 3.06 µM; in the test on OVCAR-3 ovarian, 3.03 µM. For the same molecule, the GI50 with SN12C renal was 3.03 µM; in the test on NCI-H226 lung, 2.91 µM; in the test with HCC-2998 colon it was 2.12 µM; in the test on UACC-62 melanoma, 2.58 µM. Moreover, the TGI stood at 12.4 µM with COLO 205 colon; 8.71 µM in the test with NCI-H460 lung; 5.17 µM with HS 578T breast; 6.54 µM with HOP-92 NSCLC; 17.2 µM in the test with NCI-H23 lung; 17.7 µM in the test on OVCAR-3 ovarian. Besides, the TGI in the test with SN12C renal was over 100 µM; in the test on NCI-H226 lung, over 100 µM; with HCC-2998 colon, 4.71 µM; with UACC-62 melanoma, 8.56 µM.
Turning to `COc1ccc(C(=O)c2cc(OC)c(OC)c(OC)c2)cc1/C=C/C(=O)c1ccc(O)cc1`, the GI50 in the test with COLO 205 colon was 15.1 µM; in the test on NCI-H460 lung it was 2.56 µM; in the test with HS 578T breast, 18.3 µM; in the test with HOP-92 NSCLC, 1.21 µM; with NCI-H23 lung, 2.93 µM; in the test on OVCAR-3 ovarian, 3 µM. Besides, the GI50 with SN12C renal is 2.66 µM; in the test on NCI-H226 lung, 2.5 µM; with HCC-2998 colon it was 1.66 µM; with UACC-62 melanoma it was 1.69 µM. For the same molecule, the TGI was 36.3 µM in the test with COLO 205 colon; 7.23 µM in the test on NCI-H460 lung; over 100 µM in the test with HS 578T breast; 3.31 µM in the test on HOP-92 NSCLC; 10.2 µM in the test on NCI-H23 lung; 8.47 µM in the test on OVCAR-3 ovarian. Besides, the TGI in the test with SN12C renal was found to be 12.6 µM; in the test on NCI-H226 lung, 7.78 µM; in the test on HCC-2998 colon, 3.16 µM; with UACC-62 melanoma, 3.77 µM.
In the case of `CC1/C=C/C=C/CC/C=C/C=C/C=C/C=C/C(OC2OC(C)C(O)C(N)C2O)CC2OC(CC(O)C(O)CCC(O)CC(O)CC(O)CC(=O)OC(C)C(C)C1O)CC(O)C2C(=O)O` (centres undefined), the GI50 in the test with COLO 205 colon was 81.7 µg/mL; in the test with NCI-H460 lung, 30.4 µg/mL; in the test on HS 578T breast it was 32.5 µg/mL; in the test with HOP-92 NSCLC it was 42.5 µg/mL; in the test on NCI-H23 lung it was 25.7 µg/mL; in the test on OVCAR-3 ovarian, 101 µg/mL. Moreover, the GI50 was 23.4 µg/mL in the test on SN12C renal, 28.7 µg/mL with NCI-H226 lung, 19.1 µg/mL in the test on HCC-2998 colon and 28.8 µg/mL in the test with UACC-62 melanoma. Also, the TGI was 56.8 µM and 150 µg/mL with COLO 205 colon; 39.7 µM and 87.7 µg/mL in the test on NCI-H460 lung; 55.1 µM and 66.9 µg/mL in the test with HS 578T breast; > 100 µM and 150 µg/mL in the test with HOP-92 NSCLC; 35.6 µM and 50.3 µg/mL in the test with NCI-H23 lung; 37.2 µM and 150 µg/mL in the test on OVCAR-3 ovarian. Further, the TGI was 30.3 µM and 43.8 µg/mL with SN12C renal; 28.3 µM and 53.6 µg/mL in the test with NCI-H226 lung; 30.8 µM and 44.6 µg/mL in the test with HCC-2998 colon; 38 µM and 55.8 µg/mL in the test with UACC-62 melanoma.
Turning to `CN(C)CCCNC(=O)c1cc(NC(=O)c2cc(NC(=O)CCCN3c4ccccc4C=Cc4ccccc43)cn2C)cn1C`, the GI50 in the test on NCI-H460 lung was 5.19 µM; with HS 578T breast, 4.87 µM; in the test on HOP-92 NSCLC it was 10 µM; in the test on NCI-H23 lung, 10.6 µM; in the test on OVCAR-3 ovarian, 13.4 µM; with SN12C renal, 13.8 µM. Further, the GI50 in the test with NCI-H226 lung was 19.4 µM; in the test with HCC-2998 colon it was 2.17 µM. Besides, the TGI in the test on NCI-H460 lung was over 100 µM; in the test on HS 578T breast it was 40 µM; in the test with HOP-92 NSCLC it was 78.7 µM; in the test on NCI-H23 lung, 54.8 µM; with OVCAR-3 ovarian it was 54.2 µM; with SN12C renal, 43 µM. The TGI with NCI-H226 lung is over 100 µM; in the test with HCC-2998 colon it was 4.03 µM.
Consider `COc1cc(-c2cc(C(=O)Nc3nc4ccccc4s3)nc3cc(-c4ccccc4)nn23)cc(OC)c1OC`, for which the GI50 in the test on NCI-H460 lung was 29.1 µM; in the test on HS 578T breast it was 4.7 µM; in the test with HOP-92 NSCLC, 0.775 µM; in the test on NCI-H23 lung it was 11.5 µM; in the test with OVCAR-3 ovarian, 13.3 µM; in the test with SN12C renal, 85.1 µM. Besides, the values for the GI50 with NCI-H226 lung, in the test with HCC-2998 colon and in the test with UACC-62 melanoma were 27.5 µM, over 100 µM and 14.4 µM, respectively. Moreover, the TGI in the test with NCI-H460 lung is over 100 µM; in the test with HS 578T breast it was over 100 µM; in the test with HOP-92 NSCLC, 5.24 µM; in the test with NCI-H23 lung, over 100 µM; in the test on OVCAR-3 ovarian it was 52.1 µM; with SN12C renal it was over 100 µM. The figures for the TGI in the test with NCI-H226 lung, with HCC-2998 colon and in the test with UACC-62 melanoma were over 100 µM, over 100 µM and 80.4 µM, respectively.
As for `COc1ccc(/C=C/C(=O)/C=C(/C=C/c2ccc(OC)c(OC)c2)OB(F)F)cc1OC`, the GI50 with COLO 205 colon is 0.37 µM; with NCI-H460 lung, 1.68 µM; with HS 578T breast, 1.31 µM; in the test with HOP-92 NSCLC, 1.71 µM; in the test on NCI-H23 lung it was 1.33 µM; with OVCAR-3 ovarian, 0.324 µM. Moreover, the results for the GI50 in the test with NCI-H226 lung, in the test on HCC-2998 colon and with UACC-62 melanoma were 2 µM, 2.02 µM and 0.574 µM, respectively. In addition, the TGI worked out at 1.57 µM in the test with COLO 205 colon; 4.58 µM in the test with NCI-H460 lung; 8.15 µM with HS 578T breast; 4.89 µM with HOP-92 NSCLC; 4.17 µM in the test with NCI-H23 lung; 1.04 µM in the test on OVCAR-3 ovarian. The TGI with NCI-H226 lung worked out at 6.88 µM; with HCC-2998 colon, 4.17 µM; in the test on UACC-62 melanoma, 2.16 µM.
Turning to `Cc1cc(S(=O)(=O)Nc2nnc(-c3ccco3)c(-c3ccco3)n2)c(SCc2ccccc2)cc1Cl`, the GI50 was 26.1 µM in the test with COLO 205 colon; 31.6 µM in the test on NCI-H460 lung; 29.7 µM in the test with HS 578T breast; 21.5 µM in the test with HOP-92 NSCLC; 22.8 µM in the test on NCI-H23 lung; 26.2 µM in the test with OVCAR-3 ovarian. Also, the GI50 in the test with NCI-H226 lung is 22.4 µM; in the test on HCC-2998 colon, 20.4 µM; with UACC-62 melanoma, 19.4 µM. For the same molecule, the TGI in the test on COLO 205 colon was found to be 56.3 µM; in the test with NCI-H460 lung, 83.5 µM; with HS 578T breast, 64.9 µM; in the test with HOP-92 NSCLC it was 45.4 µM; with NCI-H23 lung, 46.9 µM; with OVCAR-3 ovarian, 50.9 µM. Moreover, the TGI turned out to be 69.9 µM in the test with NCI-H226 lung, 36.8 µM with HCC-2998 colon and 37.2 µM in the test with UACC-62 melanoma.

Values taken from PubChem BioAssay (NCI).
